Experimental findings from patent US20250289855A1, “ANTIMICROBIAL CaNCR PEPTIDE FOLDING VARIANTS” (Donald Danforth Plant Science Center, priority 2022, published 2025) are described below.

“And” between values parts separate entries of the source, which are not always exact repeats. Identical values can stand only once. Bridge positions count the residues as written; N and C are the ends. Ends that are not written are not given here.

Test [1] has as its system Cercospora sojina. The test is described as follows: Antifungal MIC, 96-well plate spectrophotometric / resazurin cell viability assay. Type of test: cell-based. As to conditions: Synthetic Fungal Medium. As to the method:
Cercospora sojina and Alternaria alternata conidia were harvested from a fully grown culture plate by gently dislodging the conidia with an L-spreader in the presence of 5 ml sterile water. To remove mycelial fragments, the spore suspension was filtered through three layers of miracloth and washed twice with sterile water at 13,000 rpm for 2 minutes. The spore concentration was adjusted to 1×10^5 spores/ml using a hemocytometer.
Antifungal activity of NCR13_PFV1 and NCR13_PFV2 was assessed at different concentrations using a 2-fold dilution series of each peptide. Antifungal activity of each peptide was determined spectrophotometrically using the 96-well plate assay (Sagaram et al., (2011) PLoS One. doi: 10.1371/journal.pone.0018550; Sagaram et al., (2013). PLoS One. 2013 Dec. 4; 8(12):e82485. doi: 10.1371/journal.pone.0082485). Forty-five microliters of each peptide at different concentrations was added to each well of the microtiter plate containing 45 μL of ˜10^5 spores/ml spore suspension. The quantitative fungal growth inhibition was determined by measuring the absorbance at 595 nm using a microplate reader (Tecan Infinite M200 ProTecan Systems Inc., San Jose, CA) after 48 h. The fungal cell viability was determined by the resazurin cell viability assay (Li et al., 2019, MPMI 32, 1649-1664; Velivelli et al., 2020, doi.org/10.1073/pnas.2003526117). […]

Test [2] deals with Alternaria alternata. Kind of test: Microscopic observation of antifungal activity (light microscope, 20x). The conditions noted are these: A. alternata; peptide at 3 μM. Format: cell-based. An excerpt:
(§1) The presence of germinating conidia/mycelial fragments was observed under a light microscope at 20× magnification. […] (FIG. 3A).

Test [3] deals with Cercospora sojina. The description is as above. Type of test: cell-based.
From the text: as §1

Test [4] relates to Sclerotinia sclerotiorum 555. Kind of test: In vitro antifungal activity, 24-well plate mycelial plug assay. Type of test: cell-based. As to conditions: 2 dpi; for SFM MIC: Sclerotinia sclerotiorum 555. Here is the method: Sclerotinia sclerotiorum (S. sclerotiorum) 555 fungal cultures were grown on potato dextrose agar (PDA) medium (Difco Laboratories Inc., Detroit, MI, USA) at room temperature.
The antifungal activity of NCR13_PFV1 against S. sclerotiorum 555 was measured in an in vitro assay using 24-wells plate assay. Mycelial plugs (1 mm in diameter) cut from the margin of two day-old actively growing colony were transferred from potato dextrose agar media to a series of wells containing 125 microliter (L) of 2×SFM medium (U.S. Pat. No. 6,916,970), with 125 μL of NCR13_PFV1 at varying concentrations of 3, 6, 12 and 24 μM. The plates were incubated at room temperature for 2 days prior to assessment. The mycelium diameter growth was measured 2 dpi using ImageJ software. NCR13 PFV1 peptide effects were calculated as a percentage from the difference between growth of the control and treated mycelium using the formula:
IG (%)=(Dc−Dt)/Dc×100; where IG is inhibition of growth, Dc is the mycelium diameter (mm) of the control and Dt is the mycelium diameter (mm) of the peptide-treated dishes.

The subject of test [5] is Botrytis cinerea. The test is described as follows: Antifungal MIC, 96-well plate spectrophotometric / resazurin cell viability assay. Type of test: cell-based. As to conditions: for SFM + 2 mM CaCl2 (antifungal activity/MIC): SFM supplemented with 2 mM CaCl2; for SM + 100 mM NaCl (antifungal activity/MIC): medium supplemented with 100 mM NaCl. Here is the method: (§2) The fungal strain of Botrytis cinerea T-4 was cultured in 20% V8 growth medium. Alternaria alternata was grown on potato dextrose agar. Fungal spores were harvested by flooding the fungal growth plates with sterile water. The spore suspension was filtered through two layers of Miracloth, centrifuged at 13,600 rpm for 1 min, washed, and re-suspended in low-salt Synthetic Fungal Medium (SFM) (U.S. Pat. No. 6,916,970). The spore suspension was adjusted to equivalent spore density using a hemocytometer.
Antifungal activity of NCR13_PFV1 and NCR13_PFV2 was assessed at different concentrations using a 2-fold dilution series of each peptide. Antifungal activity of each peptide was determined spectrophotometrically using the 96-well plate assay (Sagaram et al., (2011) PLoS One. doi: 10.1371/journal.pone.0018550; Sagaram et al., (2013). PLoS One. 2013 Dec. 4; 8(12):e82485. doi: 10.1371/journal.pone.0082485). Forty-five microliters of each peptide at different concentrations was added to each well of the microtiter plate containing 45 μL of ˜10^5 spores/ml spore suspension. The quantitative fungal growth inhibition was determined by measuring the absorbance at 595 nm using a microplate reader (Tecan Infinite M200 ProTecan Systems Inc., San Jose, CA) after 48 h. The fungal cell viability was determined by the resazurin cell viability assay (Li et al., 2019, MPMI 32, 1649-1664; Velivelli et al., 2020, doi.org/10.1073/pnas.2003526117). After incubation of the pathogen/peptide mixture for 48 h, […] 0.1% resazurin solution was added to each well. After incubation of the mixture overnight, a change in the color of the resazurin dye from blue to pink or colorless indicated the presence of live fungal cells. The MIC for each peptide was the lowest concentration of each peptide at which no change in blue color occurred. Using this protocol, the MIC value of NCR13_PFV1 and NCR13_PFV2 was also determined in presence of 100 mM NaCl and 2 mM CaCl2).
The MIC of NCR13_PFV1 and NCR13_PFV2 against B. cinerea was determined (Table 3). MIC assays were carried out in 2×SFM. […] We therefore determined antifungal activity of NCR13_PFV1 and NCR13_PFV2 in SFM supplemented with 100 mM NaCl or 2 mM CaCl2) (Table 3).

Test [6] concerns Botrytis cinerea. Kind of test: Tomato fruit infection assay, drop inoculation. Type of test: in vivo. As to conditions: for visible fungal growth on tomato fruits: B. cinerea, 0.75 μM peptide applied 12 hpi, 3 dpi; for control of B. cinerea growth in tomato fruits: 0.75 μM peptide, 5 dpi. As to the method: Antifungal activity assays were performed on commercially available tomato fruits. A total of 36 tomato fruits (12 fruits per treatment) were washed with 0.01% bleach and rinsed three times with sterile distilled water. Carborundum Powder (Fisher Chemical, USA) was gently rubbed on the fruit surface to create microinjuries. The fruits were inoculated with 20 μl B. cinerea conidia (1×10^5 conidia ml-1) via drop inoculation. Conidia of B. cinerea were prepared as described above. Fruits were incubated in a Ziploc weather shield box containing moist paper towels to maintain high humidity after drop inoculation. 20 μl of peptide solution (0.75 μM of NCR13_PFV1 or NCR13_PFV2) was applied to the drop inoculated conidial suspension at 12 hours post-inoculation (hpi) and incubated for 5 days.

Test [7] has as its system Alternaria alternata. The test is described as follows: Antifungal MIC, 96-well plate spectrophotometric / resazurin cell viability assay. The conditions noted are these: Synthetic Fungal Medium. Type of test: cell-based. As to the method: as §2
Cercospora sojina and Alternaria alternata conidia were harvested from a fully grown culture plate by gently dislodging the conidia with an L-spreader in the presence of 5 ml sterile water. […]
Antifungal activity of NCR13_PFV1 and NCR13_PFV2 was assessed at different concentrations using a 2-fold dilution series of each peptide. Antifungal activity of each peptide was determined spectrophotometrically using the 96-well plate assay (Sagaram et al., (2011) PLoS One. doi: 10.1371/journal.pone.0018550; Sagaram et al., (2013). PLoS One. 2013 Dec. 4; 8(12):e82485. doi: 10.1371/journal.pone.0082485). […] The quantitative fungal growth inhibition was determined by measuring the absorbance at 595 nm using a microplate reader (Tecan Infinite M200 ProTecan Systems Inc., San Jose, CA) after 48 h. […]

In the next test the test system is B. cinerea. The test is described as follows: Semi-in planta drop-inoculation assay, gray mold on detached N. benthamiana leaves. Format: in vivo, Botrytis cinerea. As to conditions: for inhibition of gray mold disease symptoms: 3 μM. The text has this: FIG. 4 depicts a drop-inoculation assay showing semi-in planta antifungal activity of NCR13_PFV1 and NCR13_PFV2 in detached N. benthemiana leaves.
In semi-in-planta studies, detached leaves of N. benthamiana, were used to check the potential of both NCR13_PFV1 and NCR13_PFV2 to reduce gray mold disease symptoms caused by B. cinerea (FIG. 4).

Test [8] has as its system S. sclerotiorum 555. The test is described as follows: Semi-in planta antifungal assay on detached soybean leaves. Type of test: in vivo, Sclerotinia sclerotiorum. As to conditions: 2 dpi. As to the method: Representative pictures (under white light and with CropReporter based on the value of potential photosynthetic efficiency Fv/Fm) taken 48 h post-infection showing the antifungal activity of NCR13_PFV1.
(§3) For the semi-in planta antifungal assays, a 1 mm plug was taken from the leading edge of freshly cultured 2-day old fungal colony from PDA media and placed on approximately 3-4 weeks of age detached soybean leaves and pods (6 weeks of age). Then, 40 μL solution of NCR13_PFV1 at various concentrations or water was applied immediately on the plug and were allowed to incubate under high humidity for 2-3 days prior to assessment. The severity of disease lesions on each leaf was assessed using the CropReporter system as described in Li et al. Mol Plant Microbe Interact. 2019; 32:1649-1664. doi: 10.1094/MPMI-08-19-0224-R. Epub 2019 Oct. 28. PMID: 31425003. In addition, high-resolution fluorescence images were taken using CropReporter (PhenoVation, Wageningen, Netherlands).

In test [9] the test system is S. sclerotiorum 555. Kind of test: Semi-in planta antifungal assay on detached soybean pods. Format: in vivo, Sclerotinia sclerotiorum. The conditions noted are these: 3 dpi. As to the method:
Representative pictures taken 72 h post-infection showing the antifungal activity of NCR13_PFV1.
as §3
Detached soybean pods from 6-week-old plants were infected with 1 mm plug of S. sclerotiorum 555 followed by the application of a drop of NCR13_PFV1 on the plug. […] We observed that NCR13_PFV1 confers fungicidal activity with 100% protection against S. sclerotiorum 555 at 3 dpi (FIG. 6).

As to “NCR13_PFV2: NCR13-Ala peptide (SEQ ID NO: 2) expressed in Pichia pastoris, HPLC Peak2 folding variant (ATKPCQSDKDCKKFACRKPKVPKCINGFCKCVR; not fully specified; cysteine pairing not given here)”, the “SFM MIC” value was 1.5 µM with Cercospora sojina [1]; 24.0 µM in test [4]; 1.5 µM with Botrytis cinerea [5] (Synthetic Fungal Medium, 48 h, resazurin); 3 µM and 3.0 µM in the test on Alternaria alternata [7]. Further, in the test on Alternaria alternata [2], the “conidial germination / mycelial growth under the microscope” value is listed as “significant mycelial growth”. The “concentration at which C. sojina growth was inhibited (microscopy)” value with Cercospora sojina [3] turned out to be 3 µM. Also, in the test on Cercospora sojina [3] (C. sojina), the “fold higher inhibitory concentration versus the other folding variant” value is reported as ~17. In addition, the “SFM + 2 mM CaCl2 (antifungal activity/MIC)” value in the test on Botrytis cinerea [5] is reported as “Inactive”. The “SM + 100 mM NaCl (antifungal activity/MIC)” value with Botrytis cinerea [5] is on record as “Inactive”. Also, the “visible fungal growth on tomato fruits” value in the test on Botrytis cinerea [6] is “visible fungal growth”. The “inhibition of gray mold disease symptoms” value with B. cinerea is “only partially inhibitory”.
Regarding “NCR13_PFV1: NCR13-Ala peptide (SEQ ID NO: 2) expressed in Pichia pastoris, HPLC Peak1 folding variant (ATKPCQSDKDCKKFACRKPKVPKCINGFCKCVR; disulfide 11-29, 16-31, 5-24)”, the lesion size entry in the test with S. sclerotiorum 555 [8] is “significantly decreased lesion sizes”. Further, the “conidial germination / mycelial growth under the microscope” value in the test with Alternaria alternata [2] is reported as “complete inhibition of conidial germination”. The “concentration at which C. sojina growth was inhibited (microscopy)” value in the test with Cercospora sojina [3] is 0.18 µM. Further, in [4] (3, 6, 12 and 24 μM), the “S. sclerotiorum 555 mycelial growth in vitro” value is “progressively reduced in size with increasing concentrations”. Moreover, the “SFM MIC” value in test [4] was 6 µM and 6.0 µM. In addition, in the test with Botrytis cinerea [5], the “antifungal activity of NCR13_PFV1 relative to NCR13_PFV2 (from MIC)” value is reported as “fourfold or greater”, the “SFM + 2 mM CaCl2 (antifungal activity/MIC)” value is “Inactive” and the “SM + 100 mM NaCl (antifungal activity/MIC)” value is listed as “Inactive”. Moreover, in the test with Botrytis cinerea [6], the “control of B. cinerea growth in tomato fruits” value is recorded as “effective in controlling B. cinerea fungal growth” and the “visible fungal growth on tomato fruits” value is recorded as “no visible fungal growth”. Also, the “control of B. cinerea growth in tomato fruits” value in the test with Botrytis cinerea [6] (listed as NCR13 PFV1) is listed as “effective”. Also, in the test on S. sclerotiorum 555 [9], the “protection against S. sclerotiorum 555” value is 100%. Moreover, in the test on S. sclerotiorum 555 [9] (compared to water control), the “lesion or decay development” value is “no lesion or decay development”. In addition, the “SFM MIC” value in the test on Alternaria alternata [7] was 0.75 µM. For the same substance, in the test on B. cinerea, the “activity against gray mold disease relative to NCR13_PFV2” value is “two-fold higher activity” and the “inhibition of gray mold disease symptoms” value is given as “completely inhibitory”.
